Measured values: patent US12617773B2, “Azetidin-3-ylmethanol derivatives as CCR6 receptor modulators” (Idorsia Pharmaceuticals Ltd, priority 2020, dated 2026)

target: T1, human CCR6 (Homo sapiens, UniProt P51684); assay: FLIPR assay (inhibition of CCL20-induced calcium signal); assay type: cell-based; settings: HEK-293 cells expressing human CCR6; mean values where determined several times; read-out: FLIPR IC50
T1 construct: expressed in transfected cells; host or cells: HEK-293
T1 sequence (P51684 1-374): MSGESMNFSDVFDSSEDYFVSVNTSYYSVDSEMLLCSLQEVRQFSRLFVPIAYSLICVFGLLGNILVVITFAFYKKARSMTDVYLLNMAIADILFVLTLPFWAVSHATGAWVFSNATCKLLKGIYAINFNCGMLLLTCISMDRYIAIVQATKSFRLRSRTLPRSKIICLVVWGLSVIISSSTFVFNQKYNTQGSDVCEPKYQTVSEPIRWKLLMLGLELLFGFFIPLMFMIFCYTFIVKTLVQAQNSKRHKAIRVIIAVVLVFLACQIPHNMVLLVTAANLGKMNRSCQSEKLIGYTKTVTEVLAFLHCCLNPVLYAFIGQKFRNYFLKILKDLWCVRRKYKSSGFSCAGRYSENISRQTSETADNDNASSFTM
Procedure, shortened: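 Dye-loaded HEK-293 cells expressing human CCR6 were preincubated with compound for 30 min at room temperature in the dark, then challenged with 10 nM CCL20 (final). Fluorescence was tracked on FLIPR, and baseline-subtracted peak emission over base after agonist addition gave inhibition dose-response curves for IC50.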

| SMILES | IC50 [µM] |
| --- | --- |
| COC1CN(C(C)=O)CCC1c1nc(-c2cncc([C@@](O)(c3ccc(C(C)C)cc3)C3(C)CN(C)C3)c2)no1 (stereo partly drawn) [Example 500, 1-[4-(3-{5-[(R)-(1,3-Dimethyl-azetidin-3-yl)-hydroxy-(4-isopropyl-phenyl)-methyl]-pyridin-3-yl}-[1,2,4]oxadiazol-5-yl)-3-methoxy-piperidin-1-yl]-ethanone] | 0.149 |
| CC(=O)N1CCC[C@@H](c2nc(-c3cncc([C@@](O)(c4ccc(C(C)C)cc4)C4(C)CN(C)C4)c3)no2)C1 [Example 501, 1-[(R)-3-(3-{5-[(R)-(1,3-Dimethyl-azetidin-3-yl)-hydroxy-(4-isopropyl-phenyl)-methyl]-pyridin-3-yl}-[1,2,4]oxadiazol-5-yl)-piperidin-1-yl]-ethanone] | 0.108 |
| CC(C)c1ccc([C@](O)(c2cncc(-c3noc(C4(O)CCOCC4)n3)c2)C2(C)CN(C)C2)cc1 [Example 502] | 0.0658 |
| CC(C)c1ccc([C@](O)(c2cncc(-c3noc(C45CC(CO)(C4)C5)n3)c2)C2(C)CN(C)C2)cc1 [Example 503] | 0.0511 |
| CC(C)c1ccc([C@](O)(c2cncc(-c3noc(C4CC(=O)N(C)C(=O)C4)n3)c2)C2(C)CN(C)C2)cc1 [Example 504] | 0.143 |
| CC(C)c1ccc([C@](O)(c2cncc(-c3noc(C(F)(F)CO)n3)c2)C2(C)CN(C)C2)cc1 [Example 505] | 0.0359 |
| COc1cccc(-c2nc(-c3cncc([C@@](O)(c4ccc(C(C)C)cc4)C4(C)CN(C)C4)c3)no2)c1 [Example 506] | 0.024 |
| CC(C)c1ccc([C@](O)(c2cncc(-c3noc(C(C)C)n3)c2)C2(C)CN(C)C2)cc1 [Example 507] | 0.0327 |
| Cc1cc(-c2nc(-c3cncc([C@@](O)(c4ccc(C(C)C)cc4)C4(C)CN(C)C4)c3)no2)ncn1 [Example 508] | 0.0491 |
| CC(=O)N1CC[C@@H](Cc2nc(-c3cncc([C@@](O)(c4ccc(C(C)C)cc4)C4(C)CN(C)C4)c3)no2)C1 [Example 514] | 0.142 |
| Cc1nc(-c2cncc([C@@](O)(c3ccc(C(C)C)cc3)C3(C)CN(C)C3)c2)no1 [Example 517, (R)-(1,3-Dimethyl-azetidin-3-yl)-(4-isopropyl-phenyl)-[5-(5-methyl-[1,2,4]oxadiazol-3-yl)-pyridin-3-yl]-methanol] | 0.0635 |
| CC(C)c1ccc([C@](O)(c2cncc(-c3noc(C(C)(F)F)n3)c2)C2(C)CN(C)C2)cc1 [Example 518, (R)-{5-[5-(1,1-Difluoro-ethyl)-[1,2,4]oxadiazol-3-yl]-pyridin-3-yl}-(1,3-dimethyl-azetidin-3-yl)-(4-isopropyl-phenyl)-methanol] | 0.0412 |
| CC(C)c1ccc([C@](O)(c2cncc(-c3nc(C4(O)CCOCC4)no3)c2)C2(C)CN(C)C2)cc1 [Example 519, 4-(5-{5-[(R)-(1,3-Dimethyl-azetidin-3-yl)-hydroxy-(4-isopropyl-phenyl)-methyl]-pyridin-3-yl}-[1,2,4]oxadiazol-3-yl)-tetrahydro-pyran-4-ol] | 0.168 |
| CC(C)c1ccc([C@](O)(c2cncc(-c3nc(COC(C)(C)C)no3)c2)C2(C)CN(C)C2)cc1 [Example 520] | 0.0626 |
| CC(C)c1ccc([C@](O)(c2cncc(-c3nc(CO)no3)c2)C2(C)CN(C)C2)cc1 [Example 521] | 0.153 |
| CC(=O)N1CCN(c2noc(-c3cncc([C@@](O)(c4ccc(C(C)C)cc4)C4(C)CN(C)C4)c3)n2)CC1 [Example 522] | 0.119 |
| CC(=O)N1CC(Cc2noc(-c3cncc([C@@](O)(c4ccc(C(C)C)cc4)C4(C)CN(C)C4)c3)n2)C1 [Example 523] | 0.297 |
| CC(C)c1ccc([C@](O)(c2cncc(-c3nc(CC4(O)CCOCC4)no3)c2)C2(C)CN(C)C2)cc1 [Example 524, 4-(5-{5-[(R)-(1,3-Dimethyl-azetidin-3-yl)-hydroxy-(4-isopropyl-phenyl)-methyl]-pyridin-3-yl}-[1,2,4]oxadiazol-3-ylmethyl)-tetrahydro-pyran-4-ol] | 0.178 |
| CC(C)c1ccc([C@](O)(c2cncc(-c3nc(C4CCN(C(=O)C5COCCO5)CC4)no3)c2)C2(C)CN(C)C2)cc1 (stereo partly drawn) [Example 525, [4-(5-{5-[(R)-(1,3-Dimethyl-azetidin-3-yl)-hydroxy-(4-isopropyl-phenyl)-methyl]-pyridin-3-yl}-[1,2,4]oxadiazol-3-yl)-piperidin-1-yl]-[1,4]dioxan-2-yl-methanone] | 0.187 |
| COCC(=O)N1CCC(c2noc(-c3cncc([C@@](O)(c4ccc(C(C)C)cc4)C4(C)CN(C)C4)c3)n2)CC1 [Example 526, 1-[4-(5-{5-[(R)-(1,3-Dimethyl-azetidin-3-yl)-hydroxy-(4-isopropyl-phenyl)-methyl]-pyridin-3-yl}-[1,2,4]oxadiazol-3-yl)-piperidin-1-yl]-2-methoxy-ethanone] | 0.171 |
| CC(C)c1ccc([C@](O)(c2cncc(-c3nc(C4CCN(S(C)(=O)=O)CC4)no3)c2)C2(C)CN(C)C2)cc1 [Example 527, (R)-(1,3-Dimethyl-azetidin-3-yl)-(4-isopropyl-phenyl)-{5-[3-(1-methanesulfonyl-piperidin-4-yl)-[1,2,4]oxadiazol-5-yl]-pyridin-3-yl}-methanol] | 0.0743 |
| COCCS(=O)(=O)N1CCC(c2noc(-c3cncc([C@@](O)(c4ccc(C(C)C)cc4)C4(C)CN(C)C4)c3)n2)CC1 [Example 528, (R)-(1,3-Dimethyl-azetidin-3-yl)-(4-isopropyl-phenyl)-(5-{3-[1-(2-methoxy-ethanesulfonyl)-piperidin-4-yl]-[1,2,4]oxadiazol-5-yl}-pyridin-3-yl)-methanol] | 0.0669 |

| SMILES | IC50 [µM] |
| --- | --- |
| CC(C)c1ccc([C@](O)(c2cncc(-c3nc(C4CCN(C(=O)CO)CC4)no3)c2)C2(C)CN(C)C2)cc1 [Example 529, 1-[4-(5-{5-[(R)-(1,3-Dimethyl-azetidin-3-yl)-hydroxy-(4-isopropyl-phenyl)-methyl]-pyridin-3-yl}-[1,2,4]oxadiazol-3-yl)-piperidin-1-yl]-2-hydroxy-ethanone] | 0.134 |
| CC(C)c1ccc([C@](O)(c2cncc(-c3ncon3)c2)C2(C)CN(C)C2)cc1 [Example 530, (R)-(1,3-Dimethyl-azetidin-3-yl)-(4-isopropyl-phenyl)-(5-[1,2,4]oxadiazol-3-yl-pyridin-3-yl)-methanol] | 0.0587 |
| CC(=O)N1CCC(c2nc(-c3cncc([C@@](O)(c4ccc(C(C)C)cc4)C4(C)CN(C)C4)c3)no2)CC1 [Example 531, 1-[4-(3-{5-[(R)-(1,3-Dimethyl-azetidin-3-yl)-hydroxy-(4-isopropyl-phenyl)-methyl]-pyridin-3-yl}-[1,2,4]oxadiazol-5-yl)-piperidin-1-yl]-ethanone] | 0.09 |
| CN1CC(C)([C@](O)(c2ccc(Br)cc2)c2cncc(-c3noc(C(C)(C)O)n3)c2)C1 [Example 532] | 0.718 |
| CN1CC(C)([C@@](O)(c2cncc(-c3noc(C(C)(C)O)n3)c2)c2ccc3ccccc3c2)C1 [Example 533] | 1.02 |
| CN1CC(C)([C@](O)(c2ccc(C3(C(F)(F)F)CC3)cc2)c2cncc(-c3noc(C(C)(C)O)n3)c2)C1 [Example 534] | 0.047 |
| CN1CC(C)([C@](O)(c2ccc(C(C)(C)C(F)(F)F)cc2)c2cncc(-c3noc(C(C)(C)O)n3)c2)C1 [Example 535] | 0.331 |
| CC(C)Oc1ccc([C@](O)(c2cncc(-c3noc(C(C)(C)O)n3)c2)C2(C)CN(C)C2)cc1 [Example 536] | 2.45 |
| CN1CC(C)([C@](O)(c2ccc(C(F)(C(F)(F)F)C(F)(F)F)cc2)c2cncc(-c3noc(C(C)(C)O)n3)c2)C1 [Example 537] | 0.152 |
| CN1CC(C)([C@](O)(c2ccc(S(F)(F)(F)(F)F)cc2)c2cncc(-c3noc(C(C)(C)O)n3)c2)C1 [Example 538] | 0.145 |
| CC(C)c1ccc([C@](O)(c2cncc(-c3noc(C(C)(C)O)n3)c2)C2(C)CN(C)C2)cc1F [Example 539] | 0.056 |
| CN1CC(C)([C@](O)(c2ccc(C(C)(C)C)cc2)c2cncc(-c3noc(C(C)(C)O)n3)c2)C1 [Example 540] | 0.122 |
| CN1CC(C)([C@@](O)(c2cncc(-c3noc(C(C)(C)O)n3)c2)c2ccc3sccc3c2)C1 [Example 541] | 0.452 |
| CN1CC(C)([C@](O)(c2ccc(C(F)(F)C(F)(F)F)cc2)c2cncc(-c3noc(C(C)(C)O)n3)c2)C1 [Example 542] | 0.0348 |
| CN1CC(C)([C@](O)(c2ccc(C3(C)CC3)cc2)c2cncc(-c3noc(C(C)(C)O)n3)c2)C1 [Example 543] | 0.0228 |
| Cc1cc([C@](O)(c2cncc(-c3noc(C(C)(C)O)n3)c2)C2(C)CN(C)C2)ccc1C(C)C [Example 544] | 0.257 |
| CN1CC(C)([C@](O)(c2ccc(OC(F)(F)F)cc2)c2cncc(-c3noc(C(C)(C)O)n3)c2)C1 [Example 545] | 0.061 |
| CC(=O)N1CCC(c2nc(-c3cncc([C@@](O)(c4ccc(Br)cc4)C4(C)CN(C)C4)c3)no2)CC1 [Example 546] | 0.776 |
| CN1CC(C)([C@](O)(c2ccc(C(C)(C)F)cc2)c2cncc(-c3noc(C(C)(C)O)n3)c2)C1 [Example 547] | 0.797 |
| CN1CC(C)([C@](O)(c2ccc(C(C)(F)F)cc2)c2cncc(-c3noc(C(C)(C)O)n3)c2)C1 [Example 548] | 0.742 |
| CN1CC(C)([C@](O)(c2ccc(C34CC(C3)C4)cc2)c2cncc(-c3noc(C(C)(C)O)n3)c2)C1 [Example 549] | 0.0582 |
| CN1CC(C)([C@](O)(c2ccc(CC(F)(F)F)cc2)c2cncc(-c3noc(C4CCOCC4)n3)c2)C1 [Example 550] | 0.0708 |
